From US8906966B2, “Medicaments containing panthenol” (priority 2006, dated 2014)

Columns and labels:
Format in all cases: in vivo, human
inflamed joint = test: Patient response to a program of injections into or outside the inflamed joint (description)
Experimental: In some embodiments, a typical dose is an aqueous solution (about 2 milliliters) containing about 500 mg of panthenol (e.g., dexpanthenol) or an aqueous solution (about 4 milliliters) containing about 1000 mg of panthenol (e.g., dexpanthenol). Lower doses can also be used (e.g., 250 mg of panthenol). The aqueous solution can be injected directly into the site of the inflamed joint or outside of the joint as described herein. A program of injections is generally desirable in which dosages similar to that indicated above are given at intervals of a few days (e.g., 2, 3, 4, 5, or 6 days) to about one week. Reduced inflammation and increased freedom of movement is typically noticeable within 48 hours from the initial injection. Using the 1000 mg dose, patients have reported an estimated 80% reduction of pain after the first injection. In certain embodiments, for larger doses (e.g., ≧1000 milligrams), the active ingredient can be provided in two or more closely spaced (e.g., from about 5 minutes to about 1 hour) and smaller doses (e.g., each independently about 400, about 500, or about 600 milligrams).

[1] = tested on: patients treated for traumatic inflammatory conditions; test: Pain relief following intra-articular or peri-articular injection, Example 1; conditions: for Outcome: Improved (%) / Outcome: Improved n / Outcome: No change (%) / Outcome: No change n / Outcome: Not reported (%) / Outcome: Not reported n / Outcome: Temporarily improved (%) / Outcome: Temporarily improved n / Outcome: Worsened (%) / Outcome: Worsened n: 1 g dexpanthenol + 1 ml 0.1% bupivacaine intra- or peri-articular
Experimental: 62 patients ([…]) aged 21 to 85 years were treated for traumatic inflammatory conditions. The patients were administered one or more intra-articular or peri-articular injections, i.e., into the inflamed joint or nearby area, of dexpanthenol in combination with a long acting local anesthetic [4 ml of an aqueous solution of dexpanthenol Ph Eur (equal to 1 g of dexpanthenol); 1 ml of 0.1% bupivacaine]. In terms of pain relief following injection, efficacy outcome of the treatment is shown in the table below: Injection of facet joints has previously almost invariably been done using MRI to ensure exact placing of the needle. […] By palpating the patient's back in the area of pain and spasm, there is often an area of extreme tenderness about 5 cms from the midline, indicating the site of the inflamed facet joints. If a needle is inserted at right angles into this area, it will be located in or exceedingly close to the facet joint.

[2] = tested on: patients treated for traumatic inflammatory conditions; test: Safety and tolerability from case notes of the 62 patients, Example 1
Experimental: 62 patients ([…]) aged 21 to 85 years were treated for traumatic inflammatory conditions. The patients were administered one or more intra-articular or peri-articular injections, i.e., into the inflamed joint or nearby area, of dexpanthenol in combination with a long acting local anesthetic [4 ml of an aqueous solution of dexpanthenol Ph Eur (equal to 1 g of dexpanthenol); 1 ml of 0.1% bupivacaine].
Five (8%) of the 62 patients reported adverse events, including numbness and injection site pain, which resolved with time.

[3] = Total of all sites of complaint, n 98
[4] = site of complaint Back (post-traumatic spondylitis), n 54
[5] = where outcome reported, cohort of 62 patients, with bupivacaine
[6] = of the 62 patients, numbness and injection site pain, resolved with time, with bupivacaine

In the case of `CC(C)(CO)[C@@H](O)C(=O)NCCCO` [panthenol], the “reduction of pain reported by patients” value (inflamed joint; 1000 mg dose, after the first injection, estimated) is reported as ~80% and the “time until reduced inflammation and increased freedom of movement is noticeable” value (inflamed joint; from the initial injection, typical doses 500 mg or 1000 mg in aqueous solution) is reported as ≤ 48 h.
For `CC(C)(CO)[C@@H](O)C(=O)NCCCO` [dexpanthenol], the “Outcome: Improved (%)” value [1, 3] was 50.0%, the “Outcome: Improved n” value [1, 3] was 49 n and the “Outcome: No change (%)” value [1, 3] was 10.2%. For the same molecule, the “Outcome: No change n” value [1, 3] was 10 n, the “Outcome: Not reported (%)” value [1, 3] was 20.4% and the “Outcome: Not reported n” value [1, 3] was 20 n. The “Outcome: Temporarily improved (%)” value [1, 3] was 13.2%, the “Outcome: Temporarily improved n” value [1, 3] was 13 n and the “Outcome: Worsened (%)” value [1, 3] was 6.1%. The “Outcome: Worsened n” value [1, 3] was 6 n, the “effectiveness of injection adjacent to the facet joint versus directly into the joint” value ([1]; facet joints, injection without MRI) was “equally effective” and the “Outcome: Improved (%)” value [1, 4] was 55.6%. The “Outcome: Improved n” value [1, 4] was 30 n, the “Outcome: No change (%)” value [1, 4] was 11.1% and the “Outcome: No change n” value [1, 4] was 6 n. The “Outcome: Not reported (%)” value [1, 4] was 16.7%, the “Outcome: Not reported n” value [1, 4] was 9 n and the “Outcome: Temporarily improved (%)” value [1, 4] was 11.1%. For the same molecule, the “Outcome: Temporarily improved n” value [1, 4] was 6 n, the “Outcome: Worsened (%)” value [1, 4] was 5.6% and the “Outcome: Worsened n” value [1, 4] was 3 n. For the same molecule, the “Outcome: Improved (%)” value ([1]; site of complaint Hip, n 22) was 40.9%, the “Outcome: Improved n” value ([1]; site of complaint Hip, n 22) was 9 n and the “Outcome: No change (%)” value ([1]; site of complaint Hip, n 22) was 9.1%. For the same molecule, the “Outcome: No change n” value ([1]; site of complaint Hip, n 22) was 2 n, the “Outcome: Not reported (%)” value ([1]; site of complaint Hip, n 22) was 22.7% and the “Outcome: Not reported n” value ([1]; site of complaint Hip, n 22) was 5 n. The “Outcome: Temporarily improved (%)” value ([1]; site of complaint Hip, n 22) was 18.2%, the “Outcome: Temporarily improved n” value ([1]; site of complaint Hip, n 22) was 4 n and the “Outcome: Worsened (%)” value ([1]; site of complaint Hip, n 22) was 9.1%. For the same molecule, the “Outcome: Worsened n” value ([1]; site of complaint Hip, n 22) was 2 n, the “Outcome: Improved (%)” value ([1]; site of complaint Knee, n 8) was 62.5% and the “Outcome: Improved n” value ([1]; site of complaint Knee, n 8) was 5 n. For the same molecule, the “Outcome: No change (%)” value ([1]; site of complaint Knee, n 8) was 12.5%, the “Outcome: No change n” value ([1]; site of complaint Knee, n 8) was 1 n and the “Outcome: Not reported (%)” value ([1]; site of complaint Knee, n 8) was 25.0%. For the same molecule, the “Outcome: Not reported n” value ([1]; site of complaint Knee, n 8) was 2 n, the “Outcome: Temporarily improved (%)” value ([1]; site of complaint Knee, n 8) was 0 (0) % and the “Outcome: Temporarily improved n” value ([1]; site of complaint Knee, n 8) was 0 (0) n. For the same molecule, the “Outcome: Worsened (%)” value ([1]; site of complaint Knee, n 8) was 0 (0) %, the “Outcome: Worsened n” value ([1]; site of complaint Knee, n 8) was 0 (0) n and the “Outcome: Improved (%)” value ([1]; site of complaint Other, n 14) was 35.7%. For the same molecule, the “Outcome: Improved n” value ([1]; site of complaint Other, n 14) was 5 n, the “Outcome: No change (%)” value ([1]; site of complaint Other, n 14) was 7.1% and the “Outcome: No change n” value ([1]; site of complaint Other, n 14) was 1 n. The “Outcome: Not reported (%)” value ([1]; site of complaint Other, n 14) was 28.6%, the “Outcome: Not reported n” value ([1]; site of complaint Other, n 14) was 4 n and the “Outcome: Temporarily improved (%)” value ([1]; site of complaint Other, n 14) was 21.4%. The “Outcome: Temporarily improved n” value ([1]; site of complaint Other, n 14) was 3 n, the “Outcome: Worsened (%)” value ([1]; site of complaint Other, n 14) was 7.1% and the “Outcome: Worsened n” value ([1]; site of complaint Other, n 14) was 1 n. For the same molecule, the “patients who said that their condition had worsened” value [1, 5] was “less than 10%”, the “share of all patients who benefited from pain relief” value [1, 5] was “about three-quarters” and the safety and tolerability ([2]; injections into the joint or nearby area, in combination with bupivacaine, 62 patients) was “generally safe and well tolerated”. The “patients who reported adverse events (%)” value [2, 6] was 8% and the “patients who reported adverse events (number)” value [2, 6] was “Five”.
